Patent US12510533B2, “Methods for treating multiple myeloma and the use of companion biomarkers for 4-(4-(4-(((2-(2,6-dioxopiperidin-3-yl)-1-oxoisoindolin-4-yl)oxy)methyl)benzyl)piperazin-1-yl)-3-fluorobenzonitrile” (Celgene Corporation, priority 2018, dated 2025)
Read-outs that look alike come from different tables or passages of the source.

Tests used:
[1] = target: T1, Aiolos (Homo sapiens, UniProt Q96SW2+Q9UKT9); test: Aiolos degradation, ePL luminescence assay in DF15 cells expressing ePL-tagged Aiolos; type: cell-based; details: for DC50: read-out: Degradation of Aiolos IC50, DF15 cells
T1 construct: expressed in transfected cells; host or cells: DF15 multiple myeloma cells
Protocol: FIG. 1 illustrates that Compound 2 and Compound 3 degraded Aiolos protein in a time and concentration dependent manner. DF15 cells expressing Enhanced ProLabel (ePL)-tagged Aiolos were incubated with Compound 2 (triangle) or Compound 3 (square) for 45 minutes, 90 minutes, or 3 hours at the indicated concentrations. Cell extracts were then generated and the amount of Aiolos-ePL protein was determined by ePL luminescence assay.
The relative effectiveness of Compound 2 and Compound 3 to promote the destruction of Aiolos protein by the CRL4^CRBN E3 ubiquitin ligase was investigated in DF15 myeloma cells at different time points (45 minutes, 90 minutes, and 3 hours). DF15 cells expressing Enhanced ProLabel (ePL)-tagged Aiolos were incubated with Compound 2 or Compound 3 for 45 minutes, 90 minutes, or 3 hours. Cell extracts were then generated and the amount of Aiolos ePL protein was determined by ePL luminescence assay. Values shown in Table 1 correspond to data presented in FIG. 1 for Aiolos content vs. concentration.

[2] = test system: H929-1051; test: Tumor cell lysis by anti-CD3-activated, compound-treated PBMCs, co-culture with untreated H929-1051; type: cell-based; details: Homo sapiens, PBMC; lenalidomide-resistant H929-1051, untreated; 24-hour co-culture
[3] = test system: Ikaros and Aiolos; test: Immunoblot of Ikaros and Aiolos in H929-1051 cells; type: cell-based, human; details: within 4 hours
Protocol: FIG. 6A and FIG. 6B illustrate that Compound 2 degraded Ikaros and Aiolos in a concentration dependent manner, which induced apoptosis and cell cycle arrest in pomalidomide-resistant multiple myeloma cells. Shown is immunoblot analysis of pomalidomide-resistant MM cells (H929-1051) incubated with Compound 2 for (FIG. 6A) 4 hours or (FIG. 6B) 72 hours.
Incubation with concentrations as low as 1 nM of Compound 2 promoted the robust degradation of Ikaros and Aiolos within 4 hours (FIG. 6A).

[4] = test system: Aiolos, Ikaros, ZFP91; test: Immunoblot of OPM2 cells after five-day incubation; type: cell-based, human; details: Compound 2 alone
Protocol: FIG. 4 illustrates that Compound 2 induced the degradation of Ikaros, Aiolos, ZFP91, c-Myc, and IRF4, which correlates with induction of the apoptotic protein cleaved-Caspase 3, and the cell cycle arrest protein p21. Immunoblot analysis of OPM2 parental cells incubated with Compound 2 at the indicated concentrations is shown. Actin is a loading control.
Ikaros and Aiolos degradation was followed by reduction in the levels of two additional and highly critical transcription factors, c-Myc and IRF4 (FIG. 4). The loss or reduction of these factors was associated with an increase of the cyclin-dependent kinase inhibitor p21 and induction of apoptosis, as measured by cleaved caspase-3 (FIG. 4).

[5] = target: T2, Ikaros (Homo sapiens, UniProt Q13422+Q96SW2); test: Ikaros degradation in CD8+ T cells; type: cell-based; set-up: The effects of Compound 2 on the degradation of Ikaros in CD4+ and CD8+ T cells; endogenous in cells; host or cells: CD4+ and CD8+ T cells of healthy donors; CD34+ bone marrow cells of healthy donors; CD3+ T cells of multiple myeloma patients; details: 24 hours (data not shown), read-out: Ikaros degradation IC50
Protocol: The effects of Compound 2 on the degradation of Ikaros in CD4+ and CD8+ T cells over a 72 hour time course were investigated. The ability of Compound 2 to induce effector cytokine release correlated with degradation of Ikaros in CD4+ T cells, a known transcriptional repressor of IL-2 (FIG. 22A-FIG. 22C). […] The ability of Compound 2 to degrade Ikaros was also observed at the 48 and 72 hour time point in both CD4+(FIG. 22B and FIG. 22C) and CD8+ (data not shown) T cell populations. […] Thus, Ikaros and Aiolos can serve as biomarkers of T-cell activation.

[6] = target: T2, Ikaros; test: Ikaros level by flow cytometry in ex vivo cultures of healthy donor bone marrow CD34+ cells (neutrophil maturation); type: cell-based; set-up: The effects of Compound 2 on the degradation of Ikaros in CD4+ and CD8+ T cells; endogenous in cells; host or cells: CD4+ and CD8+ T cells of healthy donors; CD34+ bone marrow cells of healthy donors; CD3+ T cells of multiple myeloma patients
Protocol: Ex vivo cultures of bone marrow (BM) CD34^+ cells from healthy donors (HD) were used to investigate the effect of Compound 2 on neutropenia. […] Therefore, we monitored the effects of Compound 2 on mature neutrophils.
Ikaros protein level was analyzed by flow cytometry after each exposure period, and also at Days 19, 21, and 23 corresponding to 3, 5, and 7 days following the last exposure, respectively. CD34^+ cells derived from healthy donor bone marrow were exposed to different concentrations of Compound 2 and different incubation schedules. The percentage of Ikaros content (normalized to the DMSO control) following Compound 2 exposure at concentrations of 1, 10, and 100 nM for 2, 4, and 6 hours on each of 1, 2, or 3 consecutive days starting on Day 14 were measured. At the end of the exposure period, Compound 2 was removed and cells were incubated in the absence of Compound 2 (recovery period). Ikaros was measured by flow cytometry after incubation with Compound 2 (Days 14 to 16) and during recovery on Days 19, 21, and 23. Ikaros levels were reduced during Compound 2 exposure and recovered following drug withdrawal in a concentration-dependent manner with no significant differences noted in association with different exposure schedules (FIG. 13). Ikaros levels began returning to normal after at least 3 days following washout, pre-dating full recovery of maturation of late-stage neutrophil precursors.
To further explore the role of Ikaros in relationship to the maturation of neutrophil progenitors, Ikaros protein levels were analyzed by flow cytometry after each exposure and every other day following the last exposure to Compound 2. […] After 3 days of exposure to Compound 2, the recovery of Ikaros began in a concentration-dependent manner just 24 hours after drug washout and returned to control levels after 10 days (FIG. 14; FIG. 16B). With 5 days of exposure to Compound 2, recovery of Ikaros started on Day 17, three days after drug washout (FIG. 15). […]

T1 sequence (Q9UKT9 whole entry): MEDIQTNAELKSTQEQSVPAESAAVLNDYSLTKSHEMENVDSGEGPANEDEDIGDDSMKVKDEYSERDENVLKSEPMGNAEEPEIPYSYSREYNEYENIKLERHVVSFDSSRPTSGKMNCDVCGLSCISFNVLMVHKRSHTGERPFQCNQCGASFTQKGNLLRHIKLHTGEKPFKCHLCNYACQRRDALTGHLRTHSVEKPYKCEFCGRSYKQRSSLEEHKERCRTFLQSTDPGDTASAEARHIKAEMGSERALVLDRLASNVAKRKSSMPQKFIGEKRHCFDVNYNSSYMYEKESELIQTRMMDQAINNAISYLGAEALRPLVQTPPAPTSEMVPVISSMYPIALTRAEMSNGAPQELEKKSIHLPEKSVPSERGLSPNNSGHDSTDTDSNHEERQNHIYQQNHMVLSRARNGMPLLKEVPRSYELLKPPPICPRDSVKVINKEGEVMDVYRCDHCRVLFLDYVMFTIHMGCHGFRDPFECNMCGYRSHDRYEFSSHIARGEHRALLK
T1 sequence (Q96SW2 whole entry): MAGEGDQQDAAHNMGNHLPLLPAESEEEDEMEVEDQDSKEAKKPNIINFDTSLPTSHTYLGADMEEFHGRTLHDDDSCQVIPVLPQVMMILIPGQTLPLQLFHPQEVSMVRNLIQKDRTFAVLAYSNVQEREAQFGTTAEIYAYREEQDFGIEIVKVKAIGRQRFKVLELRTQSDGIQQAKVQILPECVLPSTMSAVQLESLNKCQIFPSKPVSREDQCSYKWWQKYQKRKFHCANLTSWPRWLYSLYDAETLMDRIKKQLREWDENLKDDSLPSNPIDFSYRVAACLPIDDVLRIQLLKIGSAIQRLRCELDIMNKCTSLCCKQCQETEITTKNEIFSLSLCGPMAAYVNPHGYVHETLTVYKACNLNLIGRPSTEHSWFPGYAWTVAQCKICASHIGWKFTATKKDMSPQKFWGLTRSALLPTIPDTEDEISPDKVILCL
T1 sequence (Q16531 2-1140, further chain): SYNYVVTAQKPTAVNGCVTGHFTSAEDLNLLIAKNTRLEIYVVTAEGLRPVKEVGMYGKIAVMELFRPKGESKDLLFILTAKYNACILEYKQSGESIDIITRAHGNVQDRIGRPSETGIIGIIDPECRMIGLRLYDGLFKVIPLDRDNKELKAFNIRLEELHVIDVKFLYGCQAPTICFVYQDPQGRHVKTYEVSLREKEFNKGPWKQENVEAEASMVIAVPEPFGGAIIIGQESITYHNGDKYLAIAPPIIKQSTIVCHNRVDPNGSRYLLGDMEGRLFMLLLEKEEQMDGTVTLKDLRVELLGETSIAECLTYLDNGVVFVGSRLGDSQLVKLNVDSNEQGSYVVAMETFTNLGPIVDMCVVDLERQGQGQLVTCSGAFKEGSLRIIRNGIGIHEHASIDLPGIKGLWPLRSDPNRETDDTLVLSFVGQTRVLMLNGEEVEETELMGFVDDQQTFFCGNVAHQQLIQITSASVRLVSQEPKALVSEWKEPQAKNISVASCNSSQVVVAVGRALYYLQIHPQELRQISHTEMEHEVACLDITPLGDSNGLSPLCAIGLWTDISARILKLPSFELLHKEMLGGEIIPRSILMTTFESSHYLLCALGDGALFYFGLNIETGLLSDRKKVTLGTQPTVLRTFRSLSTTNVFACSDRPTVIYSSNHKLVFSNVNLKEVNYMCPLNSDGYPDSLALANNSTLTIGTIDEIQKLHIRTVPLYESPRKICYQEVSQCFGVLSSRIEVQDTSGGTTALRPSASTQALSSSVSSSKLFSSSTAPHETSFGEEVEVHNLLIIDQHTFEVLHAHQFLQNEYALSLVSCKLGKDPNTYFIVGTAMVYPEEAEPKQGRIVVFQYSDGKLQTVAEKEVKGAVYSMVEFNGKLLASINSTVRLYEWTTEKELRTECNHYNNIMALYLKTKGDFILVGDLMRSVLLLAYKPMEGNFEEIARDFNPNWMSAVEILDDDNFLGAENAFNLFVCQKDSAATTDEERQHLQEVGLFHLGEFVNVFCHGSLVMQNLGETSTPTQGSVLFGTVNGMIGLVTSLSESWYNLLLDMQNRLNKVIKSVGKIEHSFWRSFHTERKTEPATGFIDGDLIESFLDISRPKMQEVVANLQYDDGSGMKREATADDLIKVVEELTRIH
T2 sequence (Q13422 whole entry): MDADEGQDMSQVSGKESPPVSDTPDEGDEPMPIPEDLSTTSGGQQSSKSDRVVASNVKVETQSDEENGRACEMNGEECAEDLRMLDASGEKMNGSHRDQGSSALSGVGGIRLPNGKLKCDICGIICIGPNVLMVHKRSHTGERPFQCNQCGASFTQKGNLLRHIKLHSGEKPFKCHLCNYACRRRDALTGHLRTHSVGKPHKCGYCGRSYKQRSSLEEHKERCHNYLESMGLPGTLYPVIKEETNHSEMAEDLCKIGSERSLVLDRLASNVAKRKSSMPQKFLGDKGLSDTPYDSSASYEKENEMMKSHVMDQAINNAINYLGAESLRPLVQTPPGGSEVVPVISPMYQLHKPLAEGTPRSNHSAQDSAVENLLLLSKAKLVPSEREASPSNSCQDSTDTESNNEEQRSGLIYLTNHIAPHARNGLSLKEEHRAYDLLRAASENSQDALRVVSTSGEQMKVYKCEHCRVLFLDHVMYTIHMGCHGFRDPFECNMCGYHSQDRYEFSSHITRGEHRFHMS
T2 sequence (Q16531 2-1140, further chain): as the sequence (Q16531 2-1140, further chain) above
T2 sequence (Q96SW2 whole entry): as the sequence (Q96SW2 whole entry) above

SMILES: N#Cc1ccc(N2CCN(Cc3ccc(COc4cccc5c4CN([C@H]4CCC(=O)NC4=O)C5=O)cc3)CC2)c(F)c1 [Compound 2, (S)-4-(4-(4-(((2-(2,6-dioxopiperidin-3-yl)-1-oxoisoindolin-4-yl)oxy)methyl)benzyl)piperazin-1-yl)-3-fluorobenzonitrile]
- manner of Aiolos degradation ([1]; 45 minutes, 90 minutes, 3 hours): time-dependent and concentration-dependent
- inhibition at 0.001 µM ([1]; DF15, read-out: inhibition at 0.001 μM): 27%
- DC50 ([1]; 45 minutes incubation): > 100000 pM
- DC50 ([1]; 90 minutes incubation): 360 pM
- DC50 ([1]; 3 hours incubation): 31 pM
- IC50 [2]: 200 pM
- lowest concentration promoting robust degradation of Ikaros and Aiolos [3]: 1 nM
- expression level of Aiolos and Ikaros, as well as ZFP91 [4]: significantly decreased
- DC50 [5]: 500 pM
- time following washout at which Ikaros levels began returning to normal ([6]; 2, 4, 6 hour exposures on 1 to 3 consecutive days from Day 14): at least 3 days
- time for Ikaros to return to control levels ([6]; 3 days of 6-hour exposures): 10 days
- Ikaros degradation after one exposure ([6]; all concentrations (1, 10, 100 nM) and all exposure schedules): fully degraded
